Experimental data reported in ChEMBL document CHEMBL3525923, “Identification of the metabolites of the antioxidant flavonoid 7-mono-O-(β-hydroxyethyl)-rutoside in mice” (Drug Metab Dispos, 2011).

Tests used:
[1] = Drug level in BALB/c mouse bile assessed as compound formation treated with monoHER at 500 mg/kg, ip measured after 240 mins by LC-DAD-TOF-MS analysis; type: ADME, organism-based; parameters: dose 500 mg/kg, route intraperitoneal; settings: in vivo, 4 h
[2] = Drug level in BALB/c mouse bile treated with 7-mono-O-(beta-hydroxyethyl)-rutoside assessed as relative metabolite level at 500 mg/kg, ip measured after 60 mins by LC-DAD-TOF-MS analysis; type: ADME, organism-based; parameters: dose 500 mg/kg, route intraperitoneal; settings: in vivo, 1 h
[3] = Retention time of the compound by LC-DAD-TOF-MS analysis; type: physicochemical
[4] = Drug level in BALB/c mouse bile assessed as compound formation treated with monoHER at 500 mg/kg, ip measured after 60 mins by LC-DAD-TOF-MS analysis; type: ADME, organism-based; parameters: dose 500 mg/kg, route intraperitoneal; settings: in vivo, 1 h
[5] = Drug metabolism in BALB/c mouse bile assessed as (2S,3S,4S,5R,6S)-6-(5-(7-(carboxymethoxy)-5-hydroxy-4-oxo-3-((2S,3R,4S,5S,6R)-3,4,5-trihydroxy-6-(((2R,3R,4R,5R,6S)-3,4,5-trihydroxy-6-methyltetrahydro-2H-pyran-2-yloxy)methyl)tetrahydro-2H-pyran-2-yloxy)-4H-chromen-2-yl)-2-hydroxyphenoxy)-3,4,5-trihydroxytetrahydro-2H-pyran-2-carboxylic acid formation at 500 mg/kg, ip measured after 60 mins by LC-DAD-TOF-MS analysis; type: ADME, organism-based; parameters: dose 500 mg/kg, route intraperitoneal; settings: in vivo, 1 h
[6] = Drug metabolism in BALB/c mouse bile assessed as (2S,3S,4S,5R,6S)-6-(5-(7-(carboxymethoxy)-5-hydroxy-4-oxo-3-((2S,3R,4S,5S,6R)-3,4,5-trihydroxy-6-(((2R,3R,4R,5R,6S)-3,4,5-trihydroxy-6-methyltetrahydro-2H-pyran-2-yloxy)methyl)tetrahydro-2H-pyran-2-yloxy)-4H-chromen-2-yl)-2-methoxyphenoxy)-3,4,5-trihydroxytetrahydro-2H-pyran-2-carboxylic acid formation at 500 mg/kg, ip measured after 60 mins by LC-DAD-TOF-MS analysis; type: ADME, organism-based; parameters: dose 500 mg/kg, route intraperitoneal; settings: in vivo, 1 h
[7] = Drug metabolism in BALB/c mouse bile assessed as 2-(3,4-dimethoxyphenyl)-5-hydroxy-7-(2-hydroxyethoxy)-3-((2S,3R,4S,5S,6R)-3,4,5-trihydroxy-6-(hydroxymethyl)tetrahydro-2H-pyran-2-yloxy)-4H-chromen-4-one formation at 500 mg/kg, ip measured after 240 mins by LC-DAD-TOF-MS analysis; type: ADME, organism-based; parameters: dose 500 mg/kg, route intraperitoneal; settings: in vivo
[8] = Drug metabolism in BALB/c mouse bile assessed as 2-(3,4-dimethoxyphenyl)-5-hydroxy-7-(2-hydroxyethoxy)-3-((2S,3R,4S,5S,6R)-3,4,5-trihydroxy-6-(((2R,3R,4R,5R,6S)-3,4,5-trihydroxy-6-methyltetrahydro-2H-pyran-2-yloxy)methyl)tetrahydro-2H-pyran-2-yloxy)-4H-chromen-4-one formation at 500 mg/kg, ip measured after 60 mins by LC-DAD-TOF-MS analysis; type: ADME, organism-based; parameters: dose 500 mg/kg, route intraperitoneal; settings: in vivo, 1 h
[9] = Half life in mouse plasma; type: ADME, cell-free
[10] = Half life in mouse heart; type: ADME
[11] = Drug metabolism in BALB/c mouse bile assessed as (S)-4-amino-5-((R)-1-(carboxymethylamino)-3-(2,3-dihydroxy-6-(5-hydroxy-7-(2-hydroxyethoxy)-4-oxo-3-((2S,3R,4S,5S,6R)-3,4,5-trihydroxy-6-(((2R,3R,4R,5R,6S)-3,4,5-trihydroxy-6-methyltetrahydro-2H-pyran-2-yloxy)methyl)tetrahydro-2H-pyran-2-yloxy)-4H-chromen-2-yl)phenylthio)-1-oxopropan-2-ylamino)-5-oxopentanoic acid formation at 500 mg/kg, ip measured after 60 mins by LC-DAD-TOF-MS analysis; type: ADME, organism-based; parameters: dose 500 mg/kg, route intraperitoneal; settings: in vivo, 1 h
[12] = Drug metabolism in BALB/c mouse bile assessed as (2S,2'S,3S,3'S,4S,4'S,5R,5'R,6S,6'S)-6,6'-(4-(5-hydroxy-7-(2-hydroxyethoxy)-4-oxo-3-((2S,3R,4S,5S,6R)-3,4,5-trihydroxy-6-(((2R,3R,4R,5R,6S)-3,4,5-trihydroxy-6-methyltetrahydro-2H-pyran-2-yloxy)methyl)tetrahydro-2H-pyran-2-yloxy)-4H-chromen-2-yl)-1,2-phenylene)bis(oxy)bis(3,4,5-trihydroxytetrahydro-2H-pyran-2-carboxylic acid) formation at 500 mg/kg, ip measured after 60 mins by LC-DAD-TOF-MS analysis; type: ADME, organism-based; parameters: dose 500 mg/kg, route intraperitoneal; settings: in vivo, 1 h
[13] = Drug metabolism in BALB/c mouse bile assessed as 5-hydroxy-2-(3-hydroxy-4-methoxyphenyl)-7-(2-hydroxyethoxy)-3-((2S,3R,4S,5S,6R)-3,4,5-trihydroxy-6-(hydroxymethyl)tetrahydro-2H-pyran-2-yloxy)-4H-chromen-4-one formation at 500 mg/kg, ip measured after 240 mins by LC-DAD-TOF-MS analysis; type: ADME, organism-based; parameters: dose 500 mg/kg, route intraperitoneal; settings: in vivo
[14] = Drug metabolism in BALB/c mouse bile assessed as (2S,3S,4S,5R,6S)-3,4,5-trihydroxy-6-(5-(5-hydroxy-7-(2-hydroxyethoxy)-4-oxo-3-((2S,3R,4S,5S,6R)-3,4,5-trihydroxy-6-(((2R,3R,4R,5R,6S)-3,4,5-trihydroxy-6-methyltetrahydro-2H-pyran-2-yloxy)methyl)tetrahydro-2H-pyran-2-yloxy)-4H-chromen-2-yl)-2-methoxyphenoxy)tetrahydro-2H-pyran-2-carboxylic acid formation at 500 mg/kg, ip measured after 60 mins by LC-DAD-TOF-MS analysis; type: ADME, organism-based; parameters: dose 500 mg/kg, route intraperitoneal; settings: in vivo, 1 h
[15] = Drug metabolism in BALB/c mouse bile assessed as 2-(2-(3,4-dihydroxyphenyl)-5-hydroxy-4-oxo-3-((2S,3R,4S,5S,6R)-3,4,5-trihydroxy-6-(((2R,3R,4R,5R,6S)-3,4,5-trihydroxy-6-methyltetrahydro-2H-pyran-2-yloxy)methyl)tetrahydro-2H-pyran-2-yloxy)-4H-chromen-7-yloxy)acetic acid formation at 500 mg/kg, ip measured after 60 mins by LC-DAD-TOF-MS analysis; type: ADME, organism-based; parameters: dose 500 mg/kg, route intraperitoneal; settings: in vivo, 1 h
[16] = Drug metabolism in BALB/c mouse bile assessed as 5-hydroxy-2-(3-hydroxy-4-methoxyphenyl)-7-(2-hydroxyethoxy)-3-((2S,3R,4S,5S,6R)-3,4,5-trihydroxy-6-(((2R,3R,4R,5R,6S)-3,4,5-trihydroxy-6-methyltetrahydro-2H-pyran-2-yloxy)methyl)tetrahydro-2H-pyran-2-yloxy)-4H-chromen-4-one formation at 500 mg/kg, ip measured after 60 mins by LC-DAD-TOF-MS analysis; type: ADME, organism-based; parameters: dose 500 mg/kg, route intraperitoneal; settings: in vivo, 1 h
[17] = Drug metabolism in BALB/c mouse bile assessed as 2-(5-hydroxy-2-(3-hydroxy-4-methoxyphenyl)-4-oxo-3-((2S,3R,4S,5S,6R)-3,4,5-trihydroxy-6-(((2R,3R,4R,5R,6S)-3,4,5-trihydroxy-6-methyltetrahydro-2H-pyran-2-yloxy)methyl)tetrahydro-2H-pyran-2-yloxy)-4H-chromen-7-yloxy)acetic acid formation at 500 mg/kg, ip measured after 60 mins by LC-DAD-TOF-MS analysis; type: ADME, organism-based; parameters: dose 500 mg/kg, route intraperitoneal; settings: in vivo, 1 h

Structure (SMILES)	Relative metabolite level in bile [2]	Retention_time [3]	Drug metabolism [4]	other results
COc1ccc(-c2oc3cc(OCCO)cc(O)c3c(=O)c2O[C@@H]2O[C@H](CO)[C@@H](O)[C@H](O)[C@H]2O)cc1O	0.9%	7.6 min	–	Drug metabolism [1]: metabolite_detected
C[C@@H]1O[C@@H](OC[C@H]2O[C@@H](Oc3c(-c4ccc(O[C@@H]5O[C@H](C(=O)O)[C@@H](O)[C@H](O)[C@H]5O)c(O[C@@H]5O[C@H](C(=O)O)[C@@H](O)[C@H](O)[C@H]5O)c4)oc4cc(OCCO)cc(O)c4c3=O)[C@H](O)[C@@H](O)[C@@H]2O)[C@H](O)[C@H](O)[C@H]1O	0.7%	7.1 min	metabolite_detected	–
C[C@@H]1O[C@@H](OC[C@H]2O[C@@H](Oc3c(-c4ccc(O)c(O)c4SC[C@H](NC(=O)CC[C@H](N)C(=O)O)C(=O)NCC(=O)O)oc4cc(OCCO)cc(O)c4c3=O)[C@H](O)[C@@H](O)[C@@H]2O)[C@H](O)[C@H](O)[C@H]1O	0.6%	3.4 min	metabolite_detected	–
C[C@@H]1O[C@@H](OC[C@H]2O[C@@H](Oc3c(-c4ccc(O)c(O)c4)oc4cc(OCC(=O)O)cc(O)c4c3=O)[C@H](O)[C@@H](O)[C@@H]2O)[C@H](O)[C@H](O)[C@H]1O	2%	9.7 min	metabolite_detected	–
C[C@@H]1O[C@@H](OC[C@H]2O[C@@H](Oc3c(-c4ccc(O)c(O[C@@H]5O[C@H](C(=O)O)[C@@H](O)[C@H](O)[C@H]5O)c4)oc4cc(OCC(=O)O)cc(O)c4c3=O)[C@H](O)[C@@H](O)[C@@H]2O)[C@H](O)[C@H](O)[C@H]1O	0.3%	7.8 min	metabolite_detected	–
COc1ccc(-c2oc3cc(OCC(=O)O)cc(O)c3c(=O)c2O[C@@H]2O[C@H](CO[C@@H]3O[C@@H](C)[C@H](O)[C@@H](O)[C@H]3O)[C@@H](O)[C@H](O)[C@H]2O)cc1O[C@@H]1O[C@H](C(=O)O)[C@@H](O)[C@H](O)[C@H]1O	0.4%	8.8 min	metabolite_detected	–
COc1cccc2c1C(=O)c1c(O)c3c(c(O)c1C2=O)C[C@@](O)(C(=O)CO)C[C@@H]3O[C@H]1C[C@H](N)[C@H](O)[C@H](C)O1 [DOXORUBICIN]	–	–	–	half-life [9]: 12.6 h; half-life [10]: 11.5 h

The next lines start with results.

Relative metabolite level in bile [2]	Retention_time [3]	Drug metabolism [4]	Structure (SMILES)	other results
0.5%	14.8 min	metabolite_detected	COc1ccc(-c2oc3cc(OCCO)cc(O)c3c(=O)c2O[C@@H]2O[C@H](CO[C@@H]3O[C@@H](C)[C@H](O)[C@@H](O)[C@H]3O)[C@@H](O)[C@H](O)[C@H]2O)cc1OC	–
5%	12.3 min	metabolite_detected	COc1ccc(-c2oc3cc(OCC(=O)O)cc(O)c3c(=O)c2O[C@@H]2O[C@H](CO[C@@H]3O[C@@H](C)[C@H](O)[C@@H](O)[C@H]3O)[C@@H](O)[C@H](O)[C@H]2O)cc1O	–
29%	8.5 min	–	C[C@@H]1O[C@@H](OC[C@H]2O[C@@H](Oc3c(-c4ccc(O)c(O)c4)oc4cc(OCCO)cc(O)c4c3=O)[C@H](O)[C@@H](O)[C@@H]2O)[C@H](O)[C@H](O)[C@H]1O [MONOXERUTIN]	Drug metabolism [5]: metabolite_detected; Drug metabolism [6]: metabolite_detected; Drug metabolism [7]: metabolite_detected; Drug metabolism [8]: metabolite_detected; half-life [9]: 0.197 h; half-life [10]: 0.27 h; Drug metabolism [11]: metabolite_detected; Drug metabolism [12]: metabolite_detected; Drug metabolism [13]: metabolite_detected; Drug metabolism [14]: metabolite_detected; Drug metabolism [15]: metabolite_detected; Drug metabolism [16]: metabolite_detected; Drug metabolism [17]: metabolite_detected
0.6%	12.5 min	–	COc1ccc(-c2oc3cc(OCCO)cc(O)c3c(=O)c2O[C@@H]2O[C@H](CO)[C@@H](O)[C@H](O)[C@H]2O)cc1OC	Drug metabolism [1]: metabolite_detected
9%	6.9 min	metabolite_detected	COc1ccc(-c2oc3cc(OCCO)cc(O)c3c(=O)c2O[C@@H]2O[C@H](CO[C@@H]3O[C@@H](C)[C@H](O)[C@@H](O)[C@H]3O)[C@@H](O)[C@H](O)[C@H]2O)cc1O[C@@H]1O[C@H](C(=O)O)[C@@H](O)[C@H](O)[C@H]1O	–
40%	11.1 min	metabolite_detected	COc1ccc(-c2oc3cc(OCCO)cc(O)c3c(=O)c2O[C@@H]2O[C@H](CO[C@@H]3O[C@@H](C)[C@H](O)[C@@H](O)[C@H]3O)[C@@H](O)[C@H](O)[C@H]2O)cc1O	–
